The text below walks through data of patent publication US7273867B2, “Phenyl derivatives” (Merck Patent GmbH, priority 2001, dated 2007).

The target in one assay is factor Xa (Homo sapiens, UniProt P00742). The experiment in a line: Inhibition of factor Xa. The format is biochemical. An excerpt:
The inhibition of factor Xa by the compounds according to the invention and the measurement of the anticoagulant and antithrombotic activity can be determined by conventional in-vitro or in-vivo methods. A suitable method is described, for example, by J. Hauptmann et al. in Thrombosis and Haemostasis 1990, 63, 220-223.
The inhibition of factor Xa can be measured, for example, by the method of T. Hara et al. in Thromb. Haemostas. 1994, 71, 314-319.

Another assay addresses T1, factor VIIa (Homo sapiens, UniProt P08709).
T1 sequence (P08709 213-466 limits assumed): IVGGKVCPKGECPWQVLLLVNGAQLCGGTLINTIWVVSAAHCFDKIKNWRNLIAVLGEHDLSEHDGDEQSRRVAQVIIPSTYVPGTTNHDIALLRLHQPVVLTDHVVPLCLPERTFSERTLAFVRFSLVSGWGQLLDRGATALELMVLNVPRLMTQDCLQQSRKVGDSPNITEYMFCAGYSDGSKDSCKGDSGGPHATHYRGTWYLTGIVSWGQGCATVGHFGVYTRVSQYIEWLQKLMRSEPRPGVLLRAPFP
T1 sequence (P08709 61-212 limits assumed): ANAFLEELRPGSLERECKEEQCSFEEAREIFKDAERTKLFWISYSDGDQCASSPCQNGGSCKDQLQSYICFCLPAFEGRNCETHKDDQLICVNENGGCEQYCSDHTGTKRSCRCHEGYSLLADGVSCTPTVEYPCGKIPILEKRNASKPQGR
As to the kind of experiment: Inhibition of factor VIIa. The assay is classed as biochemical. An excerpt:
Coagulation factor VIIa initiates the extrinsic part of the coagulation cascade after binding to tissue factor and contributes to the activation of factor X to give factor Xa. Inhibition of factor VIIa thus prevents the formation of factor Xa and thus subsequent thrombin formation. The inhibition of factor VIIa by the compounds according to the invention and the measurement of the anticoagulant and antithrombotic activity can be determined by conventional in-vitro or in-vivo methods. A conventional method for the measurement of the inhibition of factor VIIa is described, for example, by H. F. Ronning et al. in Thrombosis Research 1996, 84, 73-81.

The term IC50 denotes the concentration needed to halve the response being measured. High values mean weaker potency in that assay, low ones greater potency in that assay.

Sequence of factor Xa (P00742 235-488 limits assumed): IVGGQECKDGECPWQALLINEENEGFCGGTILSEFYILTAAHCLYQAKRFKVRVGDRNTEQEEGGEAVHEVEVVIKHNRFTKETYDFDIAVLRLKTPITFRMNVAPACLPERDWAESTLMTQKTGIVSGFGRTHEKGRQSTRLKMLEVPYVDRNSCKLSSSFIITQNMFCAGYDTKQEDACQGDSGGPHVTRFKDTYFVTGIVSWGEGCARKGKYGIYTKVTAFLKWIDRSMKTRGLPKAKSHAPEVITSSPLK
Sequence of factor Xa (P00742 41-179 limits assumed): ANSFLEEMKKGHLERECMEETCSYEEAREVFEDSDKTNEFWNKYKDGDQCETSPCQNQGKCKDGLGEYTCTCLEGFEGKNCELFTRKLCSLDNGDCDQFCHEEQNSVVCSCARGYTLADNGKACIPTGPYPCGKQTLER

Turning to `N=C(N)c1cccc(OC(C(=O)Nc2ccc(N3CCOCC3)cc2)c2ccccc2)c1` (stereo not shown) [2-(3-amidinophenoxy)-N-(4-morpholin-4-ylphenyl)-2-phenylacetamide], the results for the IC50 against factor Xa and against factor VIIa were 0.09 µM and 0.06 µM, respectively.

On to `CCCC(Oc1cccc(C(=N)N)c1)C(=O)Nc1ccc(N2CCOCC2)cc1` (stereo not shown) [2-(3-amidinophenoxy)-N-(4-morpholin-4-ylphenyl)valeramide], for which the IC50 stood at 0.3 µM against factor Xa and 0.49 µM against factor VIIa.

As for `CCCC(Oc1cccc(C(=N)N)c1)C(=O)Nc1ccc(N2CCCCC2=O)cc1` (stereo not shown) [2-(3-amidinophenoxy)-N-[4-(2-oxopiperidin-1-yl)phenyl]valeramide], the IC50 was 0.07 µM against factor Xa and 0.033 µM against factor VIIa.

In the case of `N=C(N)c1cccc(OC(C(=O)Nc2ccc(N3CCCC3=O)cc2)c2ccccc2)c1` (stereo not shown) [2-(3-amidinophenoxy)-N-[4-(2-oxopyrrolidin-1-yl)phenyl]-2-phenylacetamide], the IC50 against factor Xa worked out at 0.065 µM; on factor VIIa it was 0.039 µM.

`CCCC(Oc1cccc(C(=N)N)c1)C(=O)Nc1ccc(N2CCCC2=O)cc1` (stereo not shown) [2-(3-amidinophenoxy)-N-[4-(2-oxopyrrolidin-1-yl)phenyl]valeramide]: the figures for the IC50 against factor Xa and on factor VIIa were 0.13 µM and 0.083 µM, respectively.

On to `CC(C)CC(Nc1cccc(C(=N)N)c1)C(=O)Nc1ccc(N(C)C)cc1` (stereo not shown) [2-(3-amidinophenylamino)-N-(4-dimethylaminophenyl)-4-methylvaleramide], for which the IC50 came to 0.16 µM at factor Xa and 0.021 µM on factor VIIa.

In the case of `N=C(N)c1cccc(NC(C(=O)Nc2ccc(N3CCOCC3)cc2)c2ccccc2)c1` (stereo not shown) [2-(3-amidinophenylamino)-N-(4-morpholin-4-ylphenyl)-2-phenylacetamide], the values for the IC50 against factor Xa and at factor VIIa were 0.034 µM and 0.022 µM, respectively.

As to `N=C(N)c1cccc(OC(C(=O)Nc2ccc(N3CCCCC3=O)cc2)c2ccccc2)c1` (stereo not shown) [EMD 388547, 2-(3-amidinophenoxy)-N-[4-(2-oxopiperidin-1-yl)phenyl]-2-phenylacetamide], the IC50 came to 0.032 µM against factor Xa and 0.014 µM against factor VIIa.
